For 8 compounds, IC50 results are on record in patent US10246453B2, “Benzenesulfonamide compounds and their use as therapeutic agents” (Xenon Pharmaceuticals Inc., priority 2016, dated 2019).

The target in data set [1] is T1, NaV1.1 (Homo sapiens (Human), UniProt P35498). The data set can be described thus: Sodium Influx Assay (Flux), NaV1.1. The class given is cell-based. The conditions noted are these: Trex HEK293 cells, ANG2 dye; arithmetic mean.
Data set [2] has as its target T2, NaV1.6 (Homo sapiens (Human), UniProt Q9UQD0). The data set can be described thus: Electrophysiological Assay (EP), patch voltage clamp, NaV1.6. The note with it: HEK-293 cells, whole-cell patch clamp, inactivated state; arithmetic mean. Type of data set: cell-based.
The target in data set [3] is T1, NaV1.1. Kind of data set: Electrophysiological Assay (EP), patch voltage clamp, NaV1.1. Type of data set: cell-based. The conditions noted are these: HEK-293 cells, whole-cell patch clamp, inactivated state; arithmetic mean.
The target in data set [4] is T2, NaV1.6. Kind of data set: Sodium Influx Assay (Flux), NaV1.6. The conditions noted are these: read-out: Flux NaV1.6 IC50; Trex HEK293 cells, ANG2 dye; arithmetic mean.
The target in the next data set is NaV1.5 (Homo sapiens (Human), UniProt Q14524). The data set can be described thus: Sodium Influx Assay (Flux), NaV1.5. The conditions noted are these: read-out: Flux NaV1.5 IC50; Trex HEK293 cells, ANG2 dye; arithmetic mean.

Where a name gives a salt, the structure may show the parent alone.

Chain of NaV1.5 (Q14524 other isoform, or with tags, fused parts or gaps): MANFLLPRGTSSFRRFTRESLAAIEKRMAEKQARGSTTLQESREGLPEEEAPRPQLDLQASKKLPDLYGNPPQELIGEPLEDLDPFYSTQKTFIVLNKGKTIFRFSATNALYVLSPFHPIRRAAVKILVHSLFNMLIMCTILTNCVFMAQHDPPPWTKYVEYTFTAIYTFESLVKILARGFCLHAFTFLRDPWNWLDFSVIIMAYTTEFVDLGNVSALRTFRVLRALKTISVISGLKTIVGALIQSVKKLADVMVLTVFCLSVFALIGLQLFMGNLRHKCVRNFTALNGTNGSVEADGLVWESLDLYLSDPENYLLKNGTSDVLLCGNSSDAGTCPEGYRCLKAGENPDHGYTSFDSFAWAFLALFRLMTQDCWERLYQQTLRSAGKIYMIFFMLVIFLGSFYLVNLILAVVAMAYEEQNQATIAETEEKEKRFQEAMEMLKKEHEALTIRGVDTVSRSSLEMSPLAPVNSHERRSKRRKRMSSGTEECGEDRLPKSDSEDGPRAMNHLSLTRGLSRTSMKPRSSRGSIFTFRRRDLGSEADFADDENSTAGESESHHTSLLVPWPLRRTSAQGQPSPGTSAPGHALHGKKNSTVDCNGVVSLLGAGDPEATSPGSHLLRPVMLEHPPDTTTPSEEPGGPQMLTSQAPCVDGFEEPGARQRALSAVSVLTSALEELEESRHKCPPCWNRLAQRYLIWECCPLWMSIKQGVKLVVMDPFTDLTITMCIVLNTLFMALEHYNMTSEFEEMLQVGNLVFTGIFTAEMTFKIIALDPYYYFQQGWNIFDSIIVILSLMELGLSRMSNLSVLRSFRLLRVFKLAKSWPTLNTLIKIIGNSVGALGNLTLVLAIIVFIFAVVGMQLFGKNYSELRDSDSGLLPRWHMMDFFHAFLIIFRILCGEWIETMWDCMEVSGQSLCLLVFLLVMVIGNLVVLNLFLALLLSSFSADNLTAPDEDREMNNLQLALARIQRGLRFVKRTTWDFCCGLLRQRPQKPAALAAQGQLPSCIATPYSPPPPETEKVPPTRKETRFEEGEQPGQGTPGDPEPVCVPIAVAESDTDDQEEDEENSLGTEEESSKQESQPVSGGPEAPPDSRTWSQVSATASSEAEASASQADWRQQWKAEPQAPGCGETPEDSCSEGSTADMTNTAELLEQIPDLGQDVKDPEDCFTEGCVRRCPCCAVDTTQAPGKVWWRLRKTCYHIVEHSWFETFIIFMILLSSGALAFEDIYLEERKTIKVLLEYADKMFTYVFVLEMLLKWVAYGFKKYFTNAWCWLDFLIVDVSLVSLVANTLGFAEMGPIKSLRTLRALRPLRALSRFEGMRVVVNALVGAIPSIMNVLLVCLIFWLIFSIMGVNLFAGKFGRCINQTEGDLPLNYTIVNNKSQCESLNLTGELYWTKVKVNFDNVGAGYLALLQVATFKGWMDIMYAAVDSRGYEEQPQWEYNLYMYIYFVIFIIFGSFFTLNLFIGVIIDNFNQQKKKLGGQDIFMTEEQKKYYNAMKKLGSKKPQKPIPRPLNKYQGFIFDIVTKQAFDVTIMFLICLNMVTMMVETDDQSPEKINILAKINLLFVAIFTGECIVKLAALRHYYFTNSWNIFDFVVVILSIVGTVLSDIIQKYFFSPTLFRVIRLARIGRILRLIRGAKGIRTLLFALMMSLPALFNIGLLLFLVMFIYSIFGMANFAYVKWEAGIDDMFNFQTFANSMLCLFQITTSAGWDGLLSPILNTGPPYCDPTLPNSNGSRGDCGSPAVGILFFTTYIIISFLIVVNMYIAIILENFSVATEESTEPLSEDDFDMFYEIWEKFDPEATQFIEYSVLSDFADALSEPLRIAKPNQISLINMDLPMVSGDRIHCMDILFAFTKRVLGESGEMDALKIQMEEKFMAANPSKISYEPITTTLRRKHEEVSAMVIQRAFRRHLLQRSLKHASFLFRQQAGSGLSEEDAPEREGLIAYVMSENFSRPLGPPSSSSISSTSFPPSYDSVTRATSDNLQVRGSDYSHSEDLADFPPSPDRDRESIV
T2 sequence (Q9UQD0 whole entry): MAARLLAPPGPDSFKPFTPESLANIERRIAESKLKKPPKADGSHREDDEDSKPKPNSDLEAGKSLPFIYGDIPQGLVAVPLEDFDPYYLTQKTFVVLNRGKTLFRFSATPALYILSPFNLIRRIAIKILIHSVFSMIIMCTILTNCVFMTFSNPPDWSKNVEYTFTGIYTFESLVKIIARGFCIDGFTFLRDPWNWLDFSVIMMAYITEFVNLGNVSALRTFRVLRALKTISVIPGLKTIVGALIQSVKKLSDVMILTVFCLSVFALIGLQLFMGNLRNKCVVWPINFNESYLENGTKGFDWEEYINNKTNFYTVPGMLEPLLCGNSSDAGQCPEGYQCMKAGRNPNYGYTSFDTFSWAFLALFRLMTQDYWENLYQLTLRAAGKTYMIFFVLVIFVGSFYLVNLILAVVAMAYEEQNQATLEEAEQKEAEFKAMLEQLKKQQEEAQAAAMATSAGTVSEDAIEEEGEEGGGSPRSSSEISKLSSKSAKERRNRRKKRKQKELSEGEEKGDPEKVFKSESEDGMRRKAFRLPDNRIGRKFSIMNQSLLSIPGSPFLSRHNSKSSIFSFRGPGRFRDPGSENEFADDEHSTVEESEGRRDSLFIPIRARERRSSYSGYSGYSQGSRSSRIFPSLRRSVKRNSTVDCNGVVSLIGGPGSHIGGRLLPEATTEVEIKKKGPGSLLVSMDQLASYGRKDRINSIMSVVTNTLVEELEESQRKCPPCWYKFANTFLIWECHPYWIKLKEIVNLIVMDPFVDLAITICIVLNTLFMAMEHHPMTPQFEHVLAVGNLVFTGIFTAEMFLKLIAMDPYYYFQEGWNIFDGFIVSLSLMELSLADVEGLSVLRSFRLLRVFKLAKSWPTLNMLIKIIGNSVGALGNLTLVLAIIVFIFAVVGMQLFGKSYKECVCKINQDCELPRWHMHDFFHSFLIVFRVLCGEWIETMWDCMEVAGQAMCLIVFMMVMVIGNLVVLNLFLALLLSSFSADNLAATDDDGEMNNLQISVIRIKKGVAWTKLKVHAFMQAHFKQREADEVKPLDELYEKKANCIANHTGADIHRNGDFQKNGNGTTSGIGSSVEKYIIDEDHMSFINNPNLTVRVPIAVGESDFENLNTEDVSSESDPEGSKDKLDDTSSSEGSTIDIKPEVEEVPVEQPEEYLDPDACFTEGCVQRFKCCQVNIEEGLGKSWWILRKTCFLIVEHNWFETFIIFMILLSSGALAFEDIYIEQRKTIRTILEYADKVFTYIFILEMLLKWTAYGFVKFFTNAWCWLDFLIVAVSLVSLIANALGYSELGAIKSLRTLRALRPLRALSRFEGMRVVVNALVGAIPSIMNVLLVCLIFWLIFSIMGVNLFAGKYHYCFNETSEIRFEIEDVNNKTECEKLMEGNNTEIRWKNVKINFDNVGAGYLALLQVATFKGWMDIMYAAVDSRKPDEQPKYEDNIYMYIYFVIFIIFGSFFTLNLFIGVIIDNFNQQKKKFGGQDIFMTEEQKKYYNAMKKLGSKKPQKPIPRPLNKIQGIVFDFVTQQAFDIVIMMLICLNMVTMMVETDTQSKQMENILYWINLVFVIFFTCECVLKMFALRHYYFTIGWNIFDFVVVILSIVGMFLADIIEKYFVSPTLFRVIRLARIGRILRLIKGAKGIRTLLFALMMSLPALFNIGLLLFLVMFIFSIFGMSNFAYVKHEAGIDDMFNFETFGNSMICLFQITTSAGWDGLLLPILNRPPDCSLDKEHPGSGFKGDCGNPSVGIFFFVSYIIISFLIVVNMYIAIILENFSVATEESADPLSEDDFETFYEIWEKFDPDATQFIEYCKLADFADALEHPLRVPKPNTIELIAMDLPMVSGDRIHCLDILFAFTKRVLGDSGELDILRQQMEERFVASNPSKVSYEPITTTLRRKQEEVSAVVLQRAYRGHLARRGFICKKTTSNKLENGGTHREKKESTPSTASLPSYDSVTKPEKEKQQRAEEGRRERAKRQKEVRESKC

Regarding `O=S(=O)(Nc1nccs1)c1cc(Cl)c(N[C@@H]2CCN(Cc3ccccc3)C2)cc1F` [Example 89, (R)-4-(1-benzylpyrrolidin-3-ylamino)-5-chloro-2-fluoro-N-(thiazol-2-yl)benzenesulfonamide], the IC50 on NaV1.1 [1] stood at 2130 nM; against NaV1.6 [2], 91 nM; against NaV1.1 [3], 2870 nM; on NaV1.6 [4] it was 501 nM; at NaV1.5, 12000 nM.
The matching figures for `CC[C@@H](c1ccccc1)N1CC[C@H](N(C)c2cc(F)c(S(=O)(=O)Nc3cscn3)cc2Cl)C1` [Example 242, 5-chloro-2-fluoro-4-(methyl((S)-1-((S)-1-phenylpropyl)pyrrolidin-3-yl)amino)-N-(thiazol-4-yl)benzenesulfonamide]: 5380 nM, 668 nM, more than 10000 nM, 650 nM and 9960 nM.
The matching figures for `C[C@@H](c1ccccc1)N1CCC(Oc2ccc(S(=O)(=O)Nc3ncns3)cc2Cl)CC1` [Example 221, (S)-3-chloro-4-((1-(1-phenylethyl)piperidin-4-yl)oxy)-N-(1,2,4-thiadiazol-5-yl)benzenesulfonamide 2,2,2-trifluoroacetate]: 10800 nM, 98 nM, more than 10000 nM, 127 nM and more than 30000 nM.
For `C[C@H](c1ccccc1)N1CCC(Oc2cc(F)c(S(=O)(=O)Nc3cscn3)cc2Cl)CC1` [Example 222, (R)-5-chloro-2-fluoro-4-((1-(1-phenylethyl)piperidin-4-yl)oxy)-N-(thiazol-4-yl)benzenesulfonamide 2,2,2-trifluoroacetate] the same measures were 27900 nM, 278 nM, more than 10000 nM, 959 nM and 19400 nM.
On to `Cc1cccc(CN2CC[C@H](N(C)c3cc(F)c(S(=O)(=O)Nc4cscn4)c(F)c3C)C2)n1` [Example 104, (S)-2,6-difluoro-3-methyl-4-(methyl(1-((6-methylpyridin-2-yl)methyl)pyrrolidin-3-yl)amino)-N-(thiazol-4-yl)benzenesulfonamide formate], for which the 50% inhibitory concentration (IC50) against NaV1.1 [1] is more than 30000 nM; at NaV1.6 [2], 11 nM; against NaV1.1 [3], more than 10000 nM; on NaV1.6 [4] it was 26 nM; on NaV1.5, more than 30000 nM.
As to `C[C@H](c1ccccc1)N1CCC(Oc2ccc(S(=O)(=O)Nc3ccncn3)cc2Cl)CC1` [Example 300, (R)-3-chloro-4-((1-(1-phenylethyl)piperidin-4-yl)oxy)-N-(pyrimidin-4-yl)benzenesulfonamide], the half-inhibitory concentration (IC50) against NaV1.1 [1] was more than 30000 nM; at NaV1.6 [2] it was 972 nM; against NaV1.1 [3], more than 10000 nM; at NaV1.6 [4] it was 1070 nM; on NaV1.5, more than 30000 nM.
For the compound `CCN(c1ccc(S(=O)(=O)Nc2ncns2)cc1Cl)[C@H]1CCN(Cc2ccccc2)C1` [Example 36, (S)-4-((1-benzylpyrrolidin-3-yl)(ethyl)amino)-3-chloro-N-(1,2,4-thiadiazol-5-yl)benzenesulfonamide], the half-inhibitory concentration (IC50) at NaV1.1 [1] was more than 30000 nM; against NaV1.6 [2], 685 nM; against NaV1.1 [3], more than 10000 nM; at NaV1.6 [4], 615 nM; at NaV1.5, more than 30000 nM.
For `CC1(Nc2ccc(S(=O)(=O)Nc3nccs3)cc2Cl)CCN(Cc2ccccc2)C1` (stereo not shown) [Example 61, 4-((1-benzyl-3-methylpyrrolidin-3-yl)amino)-3-chloro-N-(thiazol-2-yl)benzenesulfonamide], the concentration for half-maximal inhibition (IC50) at NaV1.1 [1] was 6370 nM; on NaV1.6 [2], 137 nM; against NaV1.1 [3], more than 10000 nM; at NaV1.6 [4], 176 nM; on NaV1.5 it was 6960 nM.
